Data published in US10358437B2, “Therapeutic compounds and uses thereof” (GENENTECH, INC., priority 2014, dated 2019).
Where a name gives a salt, the structure may show the parent alone.

biological target: T1, PCAF bromodomain (Homo sapiens, UniProt Q92831); assay: PCAF AlphaLisa binding assay; details: His/Flag tagged PCAF719-832 bromodomain 225 nM, biotinylated small molecule ligand 6 nM
T1 construct: Flag; made in house
T1 sequence (Q92831 719-832): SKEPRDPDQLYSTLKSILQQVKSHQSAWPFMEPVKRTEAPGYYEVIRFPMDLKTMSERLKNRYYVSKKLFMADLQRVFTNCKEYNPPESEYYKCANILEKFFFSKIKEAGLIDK
Experimental: IC50 Measurements for Inhibitors Using PCAF AlphaLisa Binding Assay
His/Flag epitope tagged PCAF719-832 bromodomain was cloned, expressed and purified to homogeneity in-house. PCAF bromodomain binding and inhibition of the compounds disclosed herein was assessed by monitoring the engagement of biotinylated small molecule ligand (known to bind to the PCAF bromodomain) with the target using the AlphaLisa technology (Perkin-Elmer). Specifically, in a 384 well ProxiPlate PCAF bromodomain (225 nM final) was combined with the biotinylated small molecule ligand (6 nM final) in 50 mM HEPES (pH 7.5), 75 mM NaCl, 1 mM TCEP, 0.01% (w/v) BSA, and 0.008% (w/v) Brij-35 either in the presence of DMSO (final 0.2% DMSO) or compound dilution series in DMSO. After 15 minute incubation at room temperature AlphaLisa streptavidin acceptor beads and AlphaLisa anti-histidine donor beads were added to a final concentration of 12.5 μg/mL each.
PCAF IC50 values for the Examples 1-22 were determined using the general procedure described above.

Row | Structure (SMILES) | IC50 [nM]
1 | CN1c2ccccc2CCC1CNc1nn(C)c(=O)n(C)c1=O (racemic) [Example 2, 2,4-dimethyl-6-(((1-methyl-1,2,3,4-tetrahydroquinolin-2-yl)methyl)amino)-1,2,4-triazine-3,5(2H,4H)-dione] | > 20000
2 | CN1CCCC1CNc1nn(C)c(=O)n(C)c1=O (racemic) [Example 3, 2,4-dimethyl-6-(((1-methylpyrrolidin-2-yl)methyl)amino)-1,2,4-triazine-3,5(2H,4H)-dione] | 2500
3 | COc1ccc(C(CNc2nn(C)c(=O)n(C)c2=O)N(C)C)cc1 (racemic) [Example 6, 6-((2-(dimethylamino)-2-(4-methoxyphenyl)ethyl)amino)-2,4-dimethyl-1,2,4-triazine-3,5(2H,4H)-dione] | 150
4 | CN(C)C(CNc1nn(C)c(=O)n(C)c1=O)Cc1ccccc1 (racemic) [Example 11, 6-((2-(dimethylamino)-3-phenylpropyl)amino)-2,4-dimethyl-1,2,4-triazine-3,5(2H,4H)-dione] | 1400
5 | Cn1nc(N2CCNC(c3ccccc3)C2)c(=O)n(C)c1=O (racemic) [Example 13, 2,4-dimethyl-6-(3-phenylpiperazin-1-yl)-1,2,4-triazine-3,5(2H,4H)-dione] | > 20000
6 | CN(C)C(CNc1nn(C)c(=O)n(C)c1=O)c1ccc(C(F)(F)F)cc1 (racemic) [Example 14, 6-((2-(dimethylamino)-2-(4-(trifluoromethyl)phenyl)ethyl)amino)-2,4-dimethyl-1,2,4-triazine-3,5(2H,4H)-dione] | 250
7 | CN(C)C(C)(CNc1nn(C)c(=O)n(C)c1=O)c1ccccc1 (racemic) [Example 15, 6-((2-(dimethylamino)-2-phenylpropyl)amino)-2,4-dimethyl-1,2,4-triazine-3,5(2H,4H)-dione] | 480
8 | CCn1nc(NCC(c2ccccc2)N(C)C)c(=O)n(CC)c1=O (racemic) [Example 22, 6-((2-(dimethylamino)-2-phenylethyl)amino)-2,4-diethyl-1,2,4-triazine-3,5(2H,4H)-dione] | 12000
9 | C[C@H](Nc1nn(C)c(=O)n(C)c1=O)[C@H](c1ccccc1)N(C)C (single isomer, unassigned) [Example 17] | 120
10 | C[C@H](Nc1nn(C)c(=O)n(C)c1=O)[C@H](c1ccc(S(=O)(=O)c2ccccc2)cc1)N(C)C (single isomer, unassigned) [Example 18] | 70
11 | CN(CCNc1nn(C)c(=O)n(C)c1=O)CC(F)(F)F [Example 1, 2,4-dimethyl-6-((2-(methyl(2,2,2-trifluoroethyl)amino)ethyl)amino)-1,2,4-triazine-3,5(2H,4H)-dione] | > 20000
12 | CN(CCNc1nn(C)c(=O)n(C)c1=O)Cc1ccccc1 [Example 9, 6-((2-(benzyl(methyl)amino)ethyl)amino)-2,4-dimethyl-1,2,4-triazine-3,5(2H,4H)-dione] | 7500

More lines, now with the values ahead:

Row | IC50 [nM] | Structure (SMILES)
13 | 280 | CN(C)C(CNc1nn(C)c(=O)n(C)c1=O)c1ccc(F)cc1 (racemic) [Example 4, 6-((2-(dimethylamino)-2-(4-fluorophenyl)ethyl)amino)-2,4-dimethyl-1,2,4-triazine-3,5(2H,4H)-dione]
14 | 380 | CN1Cc2ccccc2CC1CNc1nn(C)c(=O)n(C)c1=O (racemic) [Example 8, 2,4-dimethyl-6-[(2-methyl-3,4-dihydro-1H-isoquinolin-3-yl)methylamino]-1,2,4-triazine-3,5-dione]
15 | 430 | CN(C)C(CNc1nn(C)c(=O)n(C)c1=O)c1cccc(Cl)c1 (racemic) [Example 10, 6-((2-(3-chlorophenyl)-2-(dimethylamino)ethyl)amino)-2,4-dimethyl-1,2,4-triazine-3,5(2H,4H)-dione]
16 | > 20000 | CN(C)C1CCCN(c2nn(C)c(=O)n(C)c2=O)C1 (racemic) [Example 12, 6-(3-(dimethylamino)piperidin-1-yl)-2,4-dimethyl-1,2,4-triazine-3,5(2H,4H)-dione]
17 | 8100 | Cn1nc(NCC(c2ccccc2)N2CCCC2)c(=O)n(C)c1=O (racemic) [Example 16, 2,4-dimethyl-6-((2-phenyl-2-(pyrrolidin-1-yl)ethyl)amino)-1,2,4-triazine-3,5(2H,4H)-dione]
18 | 1100 | CN(C)[C@H]1CCCC[C@H]1Nc1nn(C)c(=O)n(C)c1=O (racemic) [Example 19, 6-((2-(dimethylamino)cyclohexyl)amino)-2,4-dimethyl-1,2,4-triazine-3,5(2H,4H)-dione hydrochloride]
19 | 230 | CN(C)[C@@H]1CCCC[C@H]1Nc1nn(C)c(=O)n(C)c1=O (racemic) [Example 20, 6-(((1R,2R)-2-(dimethylamino)cyclohexyl)amino)-2,4-dimethyl-1,2,4-triazine-3,5(2H,4H)-dione]
20 | 1200 | CN1CCc2ccccc2C1CNc1nn(C)c(=O)n(C)c1=O (racemic) [Example 21, 2,4-dimethyl-6-(((2-methyl-1,2,3,4-tetrahydroisoquinolin-1-yl)methyl)amino)-1,2,4-triazine-3,5(2H,4H)-dione]
21 | 65000 | Cn1nc(NCCNc2ccccc2)c(=O)n(C)c1=O [Example 5, 2,4-dimethyl-6-((2-(phenylamino)ethyl)amino)-1,2,4-triazine-3,5(2H,4H)-dione]
22 | 37000 | CN(C)CCN(C)c1nn(C)c(=O)n(C)c1=O [Example 7, 6-((2-(dimethylamino)ethyl)(methyl)amino)-2,4-dimethyl-1,2,4-triazine-3,5(2H,4H)-dione (trifluoroacetic acid salt)]
